Test results as given in the GenesisPotency data set.

Columns and labels:
[1] = molecular target: T1, Muscarinic acetylcholine receptor M5, Homo sapiens (UniProt P08912)
T1 sequence (whole entry): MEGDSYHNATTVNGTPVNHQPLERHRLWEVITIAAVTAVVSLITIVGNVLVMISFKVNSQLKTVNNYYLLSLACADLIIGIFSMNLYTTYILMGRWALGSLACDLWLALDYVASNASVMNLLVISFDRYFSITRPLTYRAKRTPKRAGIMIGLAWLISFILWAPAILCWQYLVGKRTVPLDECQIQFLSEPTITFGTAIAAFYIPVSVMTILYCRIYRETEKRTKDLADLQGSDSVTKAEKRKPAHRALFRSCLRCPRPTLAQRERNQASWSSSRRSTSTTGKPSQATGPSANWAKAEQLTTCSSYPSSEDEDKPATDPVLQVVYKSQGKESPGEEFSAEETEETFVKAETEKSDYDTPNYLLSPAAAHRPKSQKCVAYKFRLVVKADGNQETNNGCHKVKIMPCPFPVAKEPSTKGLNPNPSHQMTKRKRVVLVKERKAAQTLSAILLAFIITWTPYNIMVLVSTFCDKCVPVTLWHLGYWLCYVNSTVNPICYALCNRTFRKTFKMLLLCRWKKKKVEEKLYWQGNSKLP

[2] = molecular target: T2, Glycylpeptide N-tetradecanoyltransferase, Trypanosoma brucei brucei (strain 927/4 GUTat10.1) (UniProt Q388H8)
T2 sequence (whole entry): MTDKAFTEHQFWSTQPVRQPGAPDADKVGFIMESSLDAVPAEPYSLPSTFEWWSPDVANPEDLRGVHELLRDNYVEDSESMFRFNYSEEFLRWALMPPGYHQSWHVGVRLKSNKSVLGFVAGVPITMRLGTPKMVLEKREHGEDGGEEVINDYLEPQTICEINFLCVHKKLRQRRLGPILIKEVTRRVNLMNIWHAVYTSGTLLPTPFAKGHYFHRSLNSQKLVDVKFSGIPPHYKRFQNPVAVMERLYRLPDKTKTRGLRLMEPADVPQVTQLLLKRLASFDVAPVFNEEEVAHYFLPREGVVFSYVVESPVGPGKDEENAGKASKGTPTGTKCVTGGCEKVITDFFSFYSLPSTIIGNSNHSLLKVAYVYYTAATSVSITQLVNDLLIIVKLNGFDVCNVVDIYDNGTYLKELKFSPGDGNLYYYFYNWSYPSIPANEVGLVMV

[3] = molecular target: T3, Carbonic anhydrase, Methanosarcina thermophila (strain ATCC 43570 / DSM 1825 / OCM 12 / VKM B-1830 / TM-1) (UniProt P40881)
T3 sequence (whole entry): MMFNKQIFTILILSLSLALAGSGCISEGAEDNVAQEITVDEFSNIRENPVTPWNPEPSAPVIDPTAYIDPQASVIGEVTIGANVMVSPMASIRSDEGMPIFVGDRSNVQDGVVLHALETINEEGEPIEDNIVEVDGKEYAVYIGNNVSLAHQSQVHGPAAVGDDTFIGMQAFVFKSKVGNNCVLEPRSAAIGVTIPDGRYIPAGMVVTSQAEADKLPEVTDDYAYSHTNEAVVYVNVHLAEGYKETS

[4] = molecular target: T4, Carbonic anhydrase, Pseudomonas aeruginosa (strain ATCC 15692 / DSM 22644 / CIP 104116 / JCM 14847 / LMG 12228 / 1C / PRS 101 / PAO1) (UniProt Q9HVB9)
T4 sequence (whole entry): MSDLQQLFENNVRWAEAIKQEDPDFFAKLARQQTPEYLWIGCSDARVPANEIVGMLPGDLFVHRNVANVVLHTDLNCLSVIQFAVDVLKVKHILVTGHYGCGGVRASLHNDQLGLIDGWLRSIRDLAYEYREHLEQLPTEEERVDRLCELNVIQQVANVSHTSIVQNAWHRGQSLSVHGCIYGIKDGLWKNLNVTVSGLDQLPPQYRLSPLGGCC

[5] = molecular target: Carbonic anhydrase 2, Homo sapiens (UniProt P00918)
[6] = molecular target: Inositol hexakisphosphate kinase 1, Homo sapiens (UniProt Q92551)
Chain of Inositol hexakisphosphate kinase 1, Homo sapiens (Q92551 whole entry, looked up): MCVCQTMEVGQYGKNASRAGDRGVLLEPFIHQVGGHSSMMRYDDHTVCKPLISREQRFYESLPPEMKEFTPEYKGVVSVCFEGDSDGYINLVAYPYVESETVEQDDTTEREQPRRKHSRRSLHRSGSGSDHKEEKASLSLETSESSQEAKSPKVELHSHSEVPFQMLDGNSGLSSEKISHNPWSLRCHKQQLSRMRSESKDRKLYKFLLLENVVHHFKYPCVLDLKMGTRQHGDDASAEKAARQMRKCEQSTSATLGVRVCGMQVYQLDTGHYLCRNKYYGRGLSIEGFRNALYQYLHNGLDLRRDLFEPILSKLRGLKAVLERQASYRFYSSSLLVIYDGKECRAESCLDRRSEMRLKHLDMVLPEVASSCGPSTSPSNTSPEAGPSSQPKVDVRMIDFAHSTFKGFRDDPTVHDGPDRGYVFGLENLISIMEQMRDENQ

[7] = molecular target: Carbonic anhydrase 2, Homo sapiens (UniProt P00918); remark: listed apart in the source
[8] = molecular target: Delta-type opioid receptor, Mus musculus (UniProt P32300)
Chain of Delta-type opioid receptor, Mus musculus (P32300 whole entry): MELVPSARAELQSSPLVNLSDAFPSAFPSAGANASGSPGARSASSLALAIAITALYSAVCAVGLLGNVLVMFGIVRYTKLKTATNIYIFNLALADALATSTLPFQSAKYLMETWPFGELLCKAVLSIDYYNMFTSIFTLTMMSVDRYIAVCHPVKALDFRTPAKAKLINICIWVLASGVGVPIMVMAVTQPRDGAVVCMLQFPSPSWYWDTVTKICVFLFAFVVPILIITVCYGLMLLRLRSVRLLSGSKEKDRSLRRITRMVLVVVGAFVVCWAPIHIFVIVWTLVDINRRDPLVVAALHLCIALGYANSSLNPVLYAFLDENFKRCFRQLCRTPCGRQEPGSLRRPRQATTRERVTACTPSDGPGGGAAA

[9] = molecular target: T5, Mitogen-activated protein kinase kinase kinase 7/TGF-beta-activated kinase 1 and MAP3K7-binding protein 1, Homo sapiens (UniProt O43318+Q15750)
T5 sequence (whole entry): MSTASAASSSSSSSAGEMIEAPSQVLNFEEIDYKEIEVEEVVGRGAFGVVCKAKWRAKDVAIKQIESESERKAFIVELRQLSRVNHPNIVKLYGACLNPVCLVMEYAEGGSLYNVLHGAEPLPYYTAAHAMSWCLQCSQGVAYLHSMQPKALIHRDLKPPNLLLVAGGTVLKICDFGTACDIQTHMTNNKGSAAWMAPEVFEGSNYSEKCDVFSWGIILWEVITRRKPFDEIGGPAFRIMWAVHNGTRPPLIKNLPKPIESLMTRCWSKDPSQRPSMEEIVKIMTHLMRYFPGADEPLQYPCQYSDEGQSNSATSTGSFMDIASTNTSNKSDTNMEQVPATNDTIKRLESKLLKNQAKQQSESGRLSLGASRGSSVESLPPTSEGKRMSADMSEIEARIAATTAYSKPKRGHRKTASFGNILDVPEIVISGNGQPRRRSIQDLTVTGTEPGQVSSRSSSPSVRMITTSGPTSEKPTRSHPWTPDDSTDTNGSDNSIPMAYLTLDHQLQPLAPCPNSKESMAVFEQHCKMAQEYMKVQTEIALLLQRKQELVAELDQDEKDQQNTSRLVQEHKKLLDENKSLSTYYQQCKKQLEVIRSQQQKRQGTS

For `O=c1c(OC2C(O)OC(CO)C(O)C2O)c(-c2ccc(O)c(O)c2)oc2cc(O)cc(O)c12` (stereo not given), the Ki [1] was > 10 µM.
For `Cc1nn(C)c(C)c1N[SH+]([O-])c1c(Cl)cc(-c2ccc(OC(F)(F)F)cc2)cc1-c1ccc(OC(F)(F)F)cc1` (stereo not given), the IC50 [2] was > 100 µM.
In the case of `C=CC(=O)Nc1ccc(Cn2nc(-c3ccc4[nH]c(C)nc4c3)c3c(N)ncnc32)cc1`, the Ki [3] is reported as > 200000 µM, the Ki [4] is reported as > 100000 µM and the Ki [5] is reported as > 200000 µM.
In the case of `O=[N+](O)c1ccc(CNc2nc(NCc3cccc(C(F)(F)F)c3)nc3[nH]cnc23)cc1`, the IC50 [6] is reported as < 200 µM.
`CC(C)[C@H]1NC(=O)[C@@H](C)[C@@H](CC=CCCC(N)=O)NC(=O)[C@@H](Cc2ccc(O)cc2)NC(=O)[C@@H](C)NC1=O` was tested, and the Ki [7] was > 10 µM.
With `COc1cc2c(c(OC)c1OC)-c1cc3c(cc1C(=O)[C@@H]1COC(=O)[C@H]1C2)OCO3` the IC50 [8] was > 10 µM.
With `CC(C)[C@H]1NC(=O)[C@@H](C)[C@@H](CC=CCCC(=O)O)NC(=O)[C@@H](Cc2ccc(O)cc2)NC(=O)[C@@H](C)NC1=O` the Ki [7] was > 10 µM.
`O=C1CSC(/N=N/c2c(O)[nH]c3ccccc23)=N1` was tested, and the IC50 [9] was > 5 µM.
